Results on 16 molecules are retold here after patent US20250320203A1, “4-(3H-PYRAZOLO[4,3-F]QUINOLIN-7-YL)-N-(2-(DIMETHYLAMINO)ETHYL)BENZAMIDE- OR HYDROXAMIC ACID COMPOUNDS, COMPOSITIONS, AND METHODS OF USE” (Purdue Research Foundation, priority 2022, published 2025).

One may read the inhibition as the drop in the measured response relative to a control, in per cent. One may read the pIC50 as the negative decadic logarithm of the IC50, by convention in mol/L. The low end stands for a high IC50, the high end for a low IC50.

One assay concerns the target T1, FLT3 (Homo sapiens, UniProt P36888).
T1 sequence (P36888 27-993): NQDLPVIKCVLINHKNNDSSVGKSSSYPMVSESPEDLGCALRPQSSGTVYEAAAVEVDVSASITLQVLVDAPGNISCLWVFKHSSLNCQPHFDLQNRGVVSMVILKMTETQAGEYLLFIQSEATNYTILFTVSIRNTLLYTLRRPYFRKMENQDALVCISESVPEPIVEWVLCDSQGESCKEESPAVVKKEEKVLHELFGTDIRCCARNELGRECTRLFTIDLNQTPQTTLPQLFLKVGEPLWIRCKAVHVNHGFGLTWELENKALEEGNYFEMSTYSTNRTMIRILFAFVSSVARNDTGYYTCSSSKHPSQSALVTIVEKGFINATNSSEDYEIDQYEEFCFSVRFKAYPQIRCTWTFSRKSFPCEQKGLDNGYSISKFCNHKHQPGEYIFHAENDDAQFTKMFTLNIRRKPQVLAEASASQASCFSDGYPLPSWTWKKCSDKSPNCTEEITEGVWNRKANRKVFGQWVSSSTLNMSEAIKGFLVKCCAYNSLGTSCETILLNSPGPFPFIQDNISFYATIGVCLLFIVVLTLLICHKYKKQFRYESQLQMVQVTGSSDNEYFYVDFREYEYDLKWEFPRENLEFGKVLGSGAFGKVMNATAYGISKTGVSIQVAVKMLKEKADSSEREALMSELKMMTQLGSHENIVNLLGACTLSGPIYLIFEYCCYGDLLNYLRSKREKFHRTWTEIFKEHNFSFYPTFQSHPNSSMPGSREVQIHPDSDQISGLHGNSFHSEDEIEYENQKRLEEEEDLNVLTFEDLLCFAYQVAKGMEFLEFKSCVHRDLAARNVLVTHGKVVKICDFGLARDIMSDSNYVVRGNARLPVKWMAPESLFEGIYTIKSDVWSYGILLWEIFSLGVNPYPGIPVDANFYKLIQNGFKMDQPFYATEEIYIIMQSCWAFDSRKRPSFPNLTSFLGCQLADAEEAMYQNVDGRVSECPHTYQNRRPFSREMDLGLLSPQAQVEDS
The assay can be described thus: ADP Glo Kinase Assay, FLT3, 50 nM inhibitor. The format is biochemical. The following applies: 50 nM inhibitor conc.; means of triplicates; read-out: Percent Inhibition (%) FLT3. Here is the method:
(§1) With the amide kinase inhibitor library established, kinase inhibition and AML cell line (Molm-14, which harbors FLT3-ITD) growth inhibition were analyzed (Table 1). More specifically, Haspin and FLT3 inhibition were evaluated in-house via ADP Glo Kinase Assay (Promega, Madison, WI). […] Values reported are means of triplicates.
(§2) Briefly, the ADP-Glo Kinase Assay Kit was used to determine inhibition of haspin. Kinase Buffer (SignalChem Cat #K01-09; 25 mM MOPS, pH 7.2, 12.5 mM β-glycerol-phosphate, 25 mM MgCl2, 2 mM EDTA) was supplemented with dithiothreitol (DTT) (0.2 mM) and bovine serum albumin (BSA) (40 μg/mL) immediately prior to use. Reaction volumes of 5 μL containing 9 ng/μL kinase, 10 μM ATP, 50 nM inhibitor, and the appropriate peptide substrate (20 μM) were incubated for 3 hours, and then quenched with an equal volume (5 μL) of GLO reagent. After 40 minutes, 10 μL DET reagent was added and incubated for 1 hour before visualization on a Cytation™ 5 Cell Imaging Multi-Mode Reader (BioTek).
In general terms: ADP-Glo turns the ADP formed in a reaction into a luminescent signal.

The next assay has as its target T2, haspin (Homo sapiens, UniProt Q8TF76).
T2 sequence (Q8TF76 1-798): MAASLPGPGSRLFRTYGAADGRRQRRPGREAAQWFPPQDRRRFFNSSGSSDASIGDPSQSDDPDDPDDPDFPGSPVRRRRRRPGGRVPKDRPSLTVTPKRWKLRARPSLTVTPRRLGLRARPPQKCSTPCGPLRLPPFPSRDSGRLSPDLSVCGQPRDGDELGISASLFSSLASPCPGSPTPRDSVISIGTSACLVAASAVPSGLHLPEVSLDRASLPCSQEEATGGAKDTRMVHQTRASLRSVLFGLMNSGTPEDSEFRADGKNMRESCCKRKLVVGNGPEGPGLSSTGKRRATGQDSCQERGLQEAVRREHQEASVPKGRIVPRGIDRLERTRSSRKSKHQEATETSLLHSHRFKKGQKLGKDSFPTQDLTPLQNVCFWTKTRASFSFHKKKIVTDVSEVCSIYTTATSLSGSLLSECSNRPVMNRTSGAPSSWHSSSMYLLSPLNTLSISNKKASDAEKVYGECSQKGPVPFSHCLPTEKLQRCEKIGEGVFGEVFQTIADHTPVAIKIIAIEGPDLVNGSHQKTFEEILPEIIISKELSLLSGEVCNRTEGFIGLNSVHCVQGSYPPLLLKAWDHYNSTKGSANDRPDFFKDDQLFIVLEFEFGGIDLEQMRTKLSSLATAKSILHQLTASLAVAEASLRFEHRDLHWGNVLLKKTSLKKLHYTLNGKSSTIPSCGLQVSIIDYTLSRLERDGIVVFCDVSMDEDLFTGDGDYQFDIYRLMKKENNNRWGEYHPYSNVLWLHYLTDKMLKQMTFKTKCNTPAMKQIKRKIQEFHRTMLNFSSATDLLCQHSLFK
The assay can be described thus: ADP Glo Kinase Assay, haspin, 50 nM inhibitor. The format is biochemical. To be noted: 50 nM inhibitor conc.; means of triplicates; read-out: Percent Inhibition (%) Haspin. Here is the method:
as §1, §2

Another assay relates to Molm-14 cells (FLT3-ITD). The assay can be described thus: AML cell line growth inhibition (CellTiter-Blue), 50 nM. The format is cell-based. The following applies: Homo sapiens, 50 nM inhibitor conc., means of triplicates, read-out: Percent Inhibition (%) Molm-14 growth. Here is the method: as §1
More specifically, cells were cultured to confluence in RPMI medium supplemented with 10% fetal bovine serum and 1× Penicillin-Streptomycin (Gibco™). Cells were plated at 5,000 cells/well in 96 well plates. After 24-hour incubation at 37° C. in a 5% CO2 incubator, compounds diluted in the same media were added to the indicated final concentration and allowed to incubate at 37° C. in a 5% CO2 incubator for 72 hours. Viability was determined using CellTiter-Blue® Cell Viability Assay (Promega, Madison, WI) with absorbance readings at 570 nm performed on a Cytation™ 5 Cell Imaging Multi-Mode Reader (BioTek) 3 hours after addition. Appropriate vehicle and cell-free controls were included. GI50 readings were confirmed by two scientists on two separate days.

The next assay addresses CDK2 (Homo sapiens, UniProt P24941). The assay can be described thus: CDK2 inhibition (IC50). In kind it is biochemical.
For the next assay, the target named is CDK12/CyclinK (Homo sapiens, UniProt Q9NYV4). The assay can be described thus: CDK12/CyclinK inhibition (IC50). In kind it is biochemical.

pIC50: −log10 of the molar value.

CDK12/CyclinK, sequence (Q9NYV4 whole entry): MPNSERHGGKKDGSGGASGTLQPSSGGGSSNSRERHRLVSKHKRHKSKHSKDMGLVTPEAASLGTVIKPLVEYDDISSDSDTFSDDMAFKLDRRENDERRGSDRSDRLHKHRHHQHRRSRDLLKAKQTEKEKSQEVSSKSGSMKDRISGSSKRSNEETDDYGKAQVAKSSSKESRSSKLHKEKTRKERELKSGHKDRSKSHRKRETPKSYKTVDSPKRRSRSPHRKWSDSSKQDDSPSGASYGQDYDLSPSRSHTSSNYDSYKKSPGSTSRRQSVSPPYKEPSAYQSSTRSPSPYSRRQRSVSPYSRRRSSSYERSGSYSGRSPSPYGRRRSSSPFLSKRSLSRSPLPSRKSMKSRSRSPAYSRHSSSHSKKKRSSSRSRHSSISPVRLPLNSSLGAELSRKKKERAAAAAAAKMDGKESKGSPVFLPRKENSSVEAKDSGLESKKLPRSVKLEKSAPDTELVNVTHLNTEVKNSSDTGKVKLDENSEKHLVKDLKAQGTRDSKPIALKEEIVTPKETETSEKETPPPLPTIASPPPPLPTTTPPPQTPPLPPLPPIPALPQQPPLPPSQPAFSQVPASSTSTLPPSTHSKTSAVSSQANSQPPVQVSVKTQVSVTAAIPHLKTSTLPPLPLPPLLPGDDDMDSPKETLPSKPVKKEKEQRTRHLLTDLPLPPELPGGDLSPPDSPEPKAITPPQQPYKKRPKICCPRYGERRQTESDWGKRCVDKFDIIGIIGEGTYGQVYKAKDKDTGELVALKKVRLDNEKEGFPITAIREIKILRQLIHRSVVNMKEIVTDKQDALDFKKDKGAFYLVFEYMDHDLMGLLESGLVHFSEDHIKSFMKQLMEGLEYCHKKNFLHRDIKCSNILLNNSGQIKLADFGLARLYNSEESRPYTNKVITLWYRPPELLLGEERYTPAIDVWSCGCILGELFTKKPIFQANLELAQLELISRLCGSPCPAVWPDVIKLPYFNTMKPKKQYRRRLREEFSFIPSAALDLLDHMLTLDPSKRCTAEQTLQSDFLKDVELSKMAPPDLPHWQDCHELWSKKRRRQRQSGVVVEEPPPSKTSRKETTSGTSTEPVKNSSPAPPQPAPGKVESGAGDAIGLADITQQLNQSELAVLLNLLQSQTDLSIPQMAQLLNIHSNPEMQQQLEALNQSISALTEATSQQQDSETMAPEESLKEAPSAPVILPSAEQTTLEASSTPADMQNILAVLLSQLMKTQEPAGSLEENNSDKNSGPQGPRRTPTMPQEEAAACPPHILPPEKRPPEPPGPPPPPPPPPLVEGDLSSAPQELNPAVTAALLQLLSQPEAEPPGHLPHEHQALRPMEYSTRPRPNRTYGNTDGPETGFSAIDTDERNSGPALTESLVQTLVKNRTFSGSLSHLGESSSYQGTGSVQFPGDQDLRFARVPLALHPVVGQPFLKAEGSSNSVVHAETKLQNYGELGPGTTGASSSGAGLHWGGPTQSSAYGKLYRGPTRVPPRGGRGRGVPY
CDK12/CyclinK, sequence (O75909 whole entry partner): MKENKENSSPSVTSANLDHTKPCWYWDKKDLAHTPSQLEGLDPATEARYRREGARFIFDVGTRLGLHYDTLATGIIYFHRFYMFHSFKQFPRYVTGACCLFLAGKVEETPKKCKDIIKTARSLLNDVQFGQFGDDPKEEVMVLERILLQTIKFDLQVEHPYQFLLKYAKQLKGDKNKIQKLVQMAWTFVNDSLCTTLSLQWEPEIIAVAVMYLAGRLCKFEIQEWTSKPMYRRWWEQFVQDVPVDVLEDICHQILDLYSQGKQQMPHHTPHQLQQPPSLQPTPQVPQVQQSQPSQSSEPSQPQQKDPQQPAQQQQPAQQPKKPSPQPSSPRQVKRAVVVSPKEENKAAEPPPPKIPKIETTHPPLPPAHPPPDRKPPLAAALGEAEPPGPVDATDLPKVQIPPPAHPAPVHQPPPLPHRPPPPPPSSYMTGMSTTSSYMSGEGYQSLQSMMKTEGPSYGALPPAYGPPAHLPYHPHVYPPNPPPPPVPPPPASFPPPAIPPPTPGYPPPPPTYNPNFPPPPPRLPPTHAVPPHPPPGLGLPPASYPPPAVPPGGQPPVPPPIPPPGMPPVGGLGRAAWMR

As to `O=C(NCc1c[nH]cn1)c1ccc(-c2nc3ccc4[nH]ncc4c3c3c2CCCC3)cc1` [Compound 4, N-((1H-imidazol-4-yl)methyl)-4-(8,9,10,11-tetrahydro-3H-pyrazolo[4,3-a]phenanthridin-7-yl)benzamide], the inhibition at 0.05 µM at FLT3 amounted to 49%; at haspin it was 54%; in the assay with Molm-14 cells (FLT3-ITD), 67%.

Turning to `O=C(NCCn1ccnc1)c1ccc(-c2nc3ccc4[nH]ncc4c3c3c2CCCC3)cc1` [Compound 5, N-(2-(1H-imidazol-1-yl)ethyl)-4-(8,9,10,11-tetrahydro-3H-pyrazolo[4,3-a]phenanthridin-7-yl)benzamide], the inhibition at 0.05 µM at FLT3 worked out at 31%; at haspin, 33%; in the assay with Molm-14 cells (FLT3-ITD), 42%.

Turning to `O=C(NCc1ncc[nH]1)c1ccc(-c2nc3ccc4[nH]ncc4c3c3c2CCCC3)cc1` [Compound 6, N-((1HI-imidazol-2-yl)methyl)-4-(8,9,10,11-tetrahydro-3H-pyrazolo[4,3-a]phenanthridin-7-yl)benzamide], the inhibition at 0.05 µM on FLT3 is 76%; at haspin it was 77%; in the assay on Molm-14 cells (FLT3-ITD) it was 84%.

`Cn1ccnc1CNC(=O)c1ccc(-c2nc3ccc4[nH]ncc4c3c3c2CCCC3)cc1` [Compound 7, N-((1-methyl-1H-imidazol-2-yl)methyl)-4-(8,9,10,11-tetrahydro-3H-pyrazolo[4,3-a]phenanthridin-7-yl)benzamide]: the inhibition at 0.05 µM worked out at 14% on FLT3, 26% at haspin and 21% in the assay on Molm-14 cells (FLT3-ITD).

For `O=C(NCc1ncn[nH]1)c1ccc(-c2nc3ccc4[nH]ncc4c3c3c2CCCC3)cc1` [Compound 8, N-((4H-1,2,4-triazol-3-yl)methyl)-4-(8,9,10,11-tetrahydro-3H-pyrazolo[4,3-a]phenanthridin-7-yl)benzamide], the inhibition at 0.05 µM on FLT3 came out at 49%; at haspin, 57%; with Molm-14 cells (FLT3-ITD) it was 48%.

With `O=C(NCc1ncc[nH]1)c1ccc(-c2nc3ccc4[nH]ncc4c3c3c2CCCC3)c(F)c1` [Compound 9, N-((1H-imidazol-2-yl)methyl)-3-fluoro-4-(8,9,10,11-tetrahydro-3H-pyrazolo[4,3-a]phenanthridin-7-yl)benzamide], the inhibition at 0.05 µM at FLT3 came out at 88%; at haspin it was 53%; in the assay on Molm-14 cells (FLT3-ITD), 87%.

On to `O=C(NCc1nnn[nH]1)c1ccc(-c2nc3ccc4[nH]ncc4c3c3c2CCCC3)cc1` [Compound 10, N-((1H-tetrazol-5-yl)methyl)-4-(8,9,10,11-tetrahydro-3H-pyrazolo[4,3-a]phenanthridin-7-yl)benzamide], for which the inhibition at 0.05 µM at FLT3 was 51%; at haspin, 57%; in the assay on Molm-14 cells (FLT3-ITD), 50%.

Take `O=C(NCc1ncc[nH]1)c1ccc(-c2nc3ccc4[nH]ncc4c3c3c2CCCC3)cc1F` [Compound 11, N-((1H-imidazol-2-yl)methyl)-2-fluoro-4-(8,9,10,11-tetrahydro-3H-pyrazolo[4,3-a]phenanthridin-7-yl)benzamide]: the inhibition at 0.05 µM at FLT3 was found to be 85%; at haspin it was 76%; in the assay with Molm-14 cells (FLT3-ITD), 80%.

In the case of `O=C(NCc1cc[nH]c1)c1ccc(-c2nc3ccc4[nH]ncc4c3c3c2CCCC3)cc1` [Compound 12, N-((1H-pyrrol-3-yl)methyl)-4-(8,9,10,11-tetrahydro-3H-pyrazolo[4,3-a]phenanthridin-7-yl)benzamide], the inhibition at 0.05 µM stood at 46% on FLT3, 41% at haspin and 39% with Molm-14 cells (FLT3-ITD).

For `O=C(NCc1nccs1)c1ccc(-c2nc3ccc4[nH]ncc4c3c3c2CCCC3)cc1` [Compound 13, 4-(8,9,10,11-tetrahydro-3HI-pyrazolo[4,3-a]phenanthridin-7-yl)-N-(thiazol-2-ylmethyl)benzamide], the inhibition at 0.05 µM at FLT3 amounted to 53%; on haspin, 68%; in the assay with Molm-14 cells (FLT3-ITD) it was 55%.

In the case of `Cc1c[nH]c(CNC(=O)c2ccc(-c3nc4ccc5[nH]ncc5c4c4c3CCCC4)cc2)n1` [Compound 14, N-((4-methyl-1H-imidazol-2-yl)methyl)-4-(8,9,10,11-tetrahydro-3H-pyrazolo[4,3-a]phenanthridin-7-yl)benzamide], the inhibition at 0.05 µM at FLT3 is 94%; at haspin, 97%.

For the molecule `O=C(NCCc1ncc[nH]1)c1ccc(-c2nc3ccc4[nH]ncc4c3c3c2CCCC3)cc1` [Compound 15, N-(2-(1H-imidazol-2-yl)ethyl)-4-(8,9,10,11-tetrahydro-3H-pyrazolo[4,3-a]phenanthridin-7-yl)benzamide], the inhibition at 0.05 µM at FLT3 was 71%; on haspin, 78%; in the assay with Molm-14 cells (FLT3-ITD), 73%.

As to `O=C(NO)c1ccc(-c2nc3ccc4[nH]ncc4c3c3c2CCCC3)cc1` [Compound HSD1993, N-hydroxy-4-(8,9,10,11-tetrahydro-3H-pyrazolo[4,3-a]phenanthridin-7-yl)benzamide], the values for the pIC50 against CDK2 and against CDK12/CyclinK were 8.40 and 8.05, respectively.

For `FC(F)(F)c1n[nH]cc1-c1nc2ccc3[nH]ncc3c2c2c1CCCC2` [HSD1169, reference compound], the inhibition at 0.05 µM on FLT3 is 81%; at haspin, 39%; in the assay with Molm-14 cells (FLT3-ITD), 90%.

For `NC(=O)c1ccc(-c2nc3ccc4[nH]ncc4c3c3c2CCCC3)cc1` [HSD1217, reference compound], the pIC50 against CDK2 was 6.73.

On CDK12/CyclinK, `CN(C)C/C=C/C(=O)Nc1ccc(C(=O)N2CCC[C@@H](Nc3ncc(Cl)c(-c4c[nH]c5ccccc45)n3)C2)cc1` [THZ531, reference compound] gave a pIC50 of 7.22.
